Reference: PMC2956513, “Novel tricyclic pyrazole BRAF inhibitors with imidazole or furan central scaffolds” (Bioorganic & Medicinal Chemistry, 2010)
pIC50, pKd: −log10 of the molar value.

What was measured:
V600EBRAF = V600EBRAF (Homo sapiens, UniProt P15056, V600E); assay: V600EBRAF kinase assay (MEK1/2 phosphorylation as endpoint); type: biochemical; details: for pIC50: isolated full length V600EBRAF kinase activity; for BRAF activity in words: BRAF IC50 assay
Procedure: (§1) The biological activities of compounds 1a–p were assessed in three assays: • (1) Inhibition of the isolated ^V600EBRAF kinase activity (IC50 BRAF), measuring MEK1/2 phosphorylation as the endpoint.[15] […] We measured the IC50 BRAF values in this paper, since they represent the inhibition of BRAF function which we consider more meaningful than the binding of inhibitor to BRAF. • (2) Inhibition of ^V600EBRAF-dependent ERK phosphorylation in WM266.4 melanoma cells (IC50 pERK). • (3) Growth inhibition of WM266.4 melanoma cells measured by sulforhodamine-B (GI50 SRB).
(§2) These assays have been described by Niculescu-Duvaz et al.[15]

[1] = system: V600EBRAF-dependent ERK phosphorylation in WM266.4 melanoma cells; assay: Phospho-ERK IC50 assay in WM266.4 cells; type: cell-based, human; details: for pIC50: Homo sapiens, WM 266-4, 6 h incubation, read-out: IC50 ppERK
Procedure: as §1
To determine the effect of compounds on BRAF activity in cells, WM266.4 cells were seeded at a density of 3 × 10^4 cells per well of a 96 well plate. The following day, test compounds were diluted into growth medium to 2× the desired final concentration and then added directly to the cells. After a 6 h incubation, the medium was removed and cells were fixed and permeabilized in 4% formaldehyde, 0.1% triton X-100 in PBS for 30 min. The wells were then blocked with 5% milk in PBS for 30 min at room temperature, followed by the addition of an antibody for phospho-ERK1/2 (Sigma, Dorset, UK) at […] in blocking solution. Plates were incubated for 3 h with shaking. Plates were washed three times with 0.1% Tween 20 using an ELx50 plate washer (BioTek, Winooski, USA). […] of a Europium-labelled anti-mouse secondary antibody (Perkin Elmer, Turku, Finland) was added to the wells in DELFIA assay buffer for 1 h. Plates were washed again and Enhancement solution was added to the wells and time resolved fluorescence was measured as instructed by the manufacturer after 20 min using a Spectramax M5 plate reader (Molecular Devices, Berkshire, UK). The plates were washed again and BCA protein assay reagent (Sigma, Dorset, UK) was added to the wells and incubated for 30 min at 37 °C. Absorbance at 570 nm was measured using a plate reader and used to normalize the fluorescence data. Inhibition of ERK phosphorylation was determined as a percentage of DMSO-treated cells and IC50 values were calculated using Prism (GraphPad Software, San Diego, USA).

WM266.4 melanoma cells = assay: Growth inhibition of WM266.4 cells by sulforhodamine-B (SRB); type: cell-based, human; details: for GI50 / GI50 SRB activity in words: WM266.4 cells; for GI50: sulforhodamine-B
Procedure: as §1, §2

BRAF = BRAF (Homo sapiens, UniProt P15056); assay: BRAF fluorescent ligand binding assay; details: alternative BRAF fluorescent ligand binding assay
[2] = PK assessment in mice after intraperitoneal administration; type: in vivo, mouse; details: CD1 nu/nu female mice, intraperitoneal 4 mg/kg, cassette dosing
Procedure: The apparent clearance, half-life (t1/2) and maximal plasma concentration of a representative tricyclic pyrazole, compound 1h, were determined in vivo in CD1 nu/nu female mice following an intraperitoneal administration of 1h.
Female Crl:CD1-Foxn1nu mice at least six weeks of age bearing mutant BRAF WM266.4 human tumor xenografts were used for the PK analyses. The mice were dosed intraperitoneally (4 mg/kg, equivalent to ca. 8 μmol/kg, 10 ml/kg, in 10% ethanol:40% PEG:50% Gelofusine v/v) in a cassette with 4 other compounds. Samples were taken at 8 time-points between 15 min and 24 h. Three mice were utilized per time-point. They were placed under isoflurane anaesthesia and blood for plasma preparation was taken by terminal cardiac puncture into heparinized syringes. Plasma samples were snap frozen in liquid nitrogen and then stored at −70 °C prior to analysis. All procedures involving animals were performed in accordance with national Home Office regulations under the Animals (Scientific Procedures) Act 1986 and within guidelines set out by the Institute’s Animal Ethics Committee and the United Kingdom Coordinating Committee for Cancer Research’s ad hoc Committee on the Welfare of Animals in Experimental Neoplasia.

Sequence of V600EBRAF (P15056 whole entry V600E): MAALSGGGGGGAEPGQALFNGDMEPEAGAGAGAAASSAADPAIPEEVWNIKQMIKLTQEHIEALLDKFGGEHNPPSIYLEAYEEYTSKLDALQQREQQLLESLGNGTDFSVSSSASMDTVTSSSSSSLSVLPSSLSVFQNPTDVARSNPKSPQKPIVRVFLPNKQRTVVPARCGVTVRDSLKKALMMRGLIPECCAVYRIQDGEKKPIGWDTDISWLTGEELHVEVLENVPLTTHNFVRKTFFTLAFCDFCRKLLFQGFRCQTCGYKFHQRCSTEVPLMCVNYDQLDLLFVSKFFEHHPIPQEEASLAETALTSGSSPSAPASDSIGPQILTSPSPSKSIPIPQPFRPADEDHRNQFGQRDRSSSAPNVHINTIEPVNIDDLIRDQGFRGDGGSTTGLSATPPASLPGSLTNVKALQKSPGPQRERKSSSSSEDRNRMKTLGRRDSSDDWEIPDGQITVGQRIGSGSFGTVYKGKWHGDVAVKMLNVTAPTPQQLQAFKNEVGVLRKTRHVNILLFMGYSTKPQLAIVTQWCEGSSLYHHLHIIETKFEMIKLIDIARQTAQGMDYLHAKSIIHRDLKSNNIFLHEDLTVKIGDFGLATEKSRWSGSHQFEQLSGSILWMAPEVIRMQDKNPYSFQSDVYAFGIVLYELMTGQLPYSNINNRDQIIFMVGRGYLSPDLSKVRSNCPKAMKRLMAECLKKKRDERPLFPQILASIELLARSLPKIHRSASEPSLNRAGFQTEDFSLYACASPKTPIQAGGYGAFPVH
Sequence of BRAF (P15056 whole entry): as the sequence (P15056 whole entry V600E) above, with E600V counted along it

SMILES | pIC50 (V600EBRAF) | pIC50 [1] | GI50 (WM266.4 melanoma cells; Homo sapiens, WM 266-4) [nM] | also measured
CN(C)CCOc1ccc(-c2nc(-c3ccc(-c4cc[nH]n4)cc3)c(-c3ccncc3)[nH]2)cc1 [1a, Dimethyl-[2-(4-{5-[4-(1H-pyrazol-3-yl)-phenyl]-4-pyridin-4-yl-1H-imidazol-2-yl}-phenoxy)-ethyl]-amine] | 5.80 | 5.24 | 7400 | 
Cc1c[nH]nc1-c1ccc(-c2nc(-c3ccc(OCCN(C)C)cc3)[nH]c2-c2ccncc2)cc1 [1b, Dimethyl-[2-(4-{5-[4-(4-methyl-1H-pyrazol-3-yl)-phenyl]-4-pyridin-4-yl-1H-imidazol-2-yl}-phenoxy)-ethyl]-amine] | 5.92 | 5.69 | 3900 | 
CN(C)CCOc1ccc(-c2nc(-c3ccc(-c4n[nH]cc4C#N)cc3)c(-c3ccncc3)[nH]2)cc1 [1c, 3-(4-{2-[4-(2-Dimethylamino-ethoxy)-phenyl]-5-pyridin-4-yl-3H-imidazol-4-yl}-phenyl)-1H-pyrazole-4-carbonitrile] | < 5.00 | < 4.00 | 11000 | 
CN(C)CCOc1ccc(-c2nc(-c3ccc(-c4n[nH]cc4Cl)cc3)c(-c3ccncc3)[nH]2)cc1 [1d, [2-(4-{5-[4-(4-Chloro-1H-pyrazol-3-yl)-phenyl]-4-pyridin-4-yl-1H-imidazol-2-yl}-phenoxy)-ethyl]-dimethyl-amine] | 5.43 | 5.00 | 4100 | 
CN(C)CCOc1ccc(-c2nc(-c3ccc4c(c3)CCc3cn[nH]c3-4)c(-c3ccncc3)[nH]2)cc1 [1e, (2-{4-[5-(4,5-Dihydro-2H-benzo[g]indazol-7-yl)-4-pyridin-4-yl-1H-imidazol-2-yl]-phenoxy}-ethyl)-dimethyl-amine] | 5.74 | 5.24 |  | 
CN(C)CCOc1ccc(-c2nc(-c3ccc4c(ccc5cn[nH]c54)c3)c(-c3ccncc3)[nH]2)cc1 [1f, (2-{4-[4-(1H-Benzo[g]indazol-7-yl)-5-pyridin-4-yl-1H-imidazol-2-yl]-phenoxy}-ethyl)-dimethyl-amine] | 5.77 | 4.60 | 3300 | 
CN(C)CCOc1ccc(-c2nc(-c3ccc4c(c3)CC3CC(=O)NN=C43)c(-c3ccncc3)[nH]2)cc1 (centres unmarked) [1g, 7-{2-[4-(2-Dimethylamino-ethoxy)-phenyl]-5-pyridin-4-yl-1H-imidazol-4-yl}-2,4,4a,5-tetrahydro-indeno[1,2-c]pyridazin-3-one] | < 5.00 | 4.00 | 8900 | 
CN(C)CCOc1ccc(-c2nc(-c3ccc4c(c3)Cc3cn[nH]c3-4)c(-c3ccncc3)[nH]2)cc1 [1h, (2-{4-[5-(2,4-Dihydro-indeno[1,2-c]pyrazol-6-yl)-4-pyridin-4-yl-1H-imidazol-2-yl]-phenoxy}-ethyl)-dimethyl-amine] | 6.64 | 5.96 | 1150 | pKd (BRAF): 8.21; half-life ([2]; CD1 nu/nu (Crl:CD1-Foxn1nu), mouse, ip, plasma, read-out: half-life (T1/2) (converted)): 3.9 h; Cmax ([2]; CD1 nu/nu (Crl:CD1-Foxn1nu), mouse, ip, plasma, read-out: maximal plasma concentration (Cmax)): 5.8 µM; plasma clearance (CL) ([2]; apparent clearance): 11 mL/min/kg; pIC50 (WM266.4 melanoma cells; Homo sapiens, WM 266-4, SRB cellular IC50, value in PK text): 5.96
CN(C)CCOc1ccc(-c2nc(-c3ccc4c(c3)Cc3nn[nH]c3-4)c(-c3ccncc3)[nH]2)cc1 [1i, (2-{4-[5-(3,8-Dihydro-indeno[1,2-d] [1,2,3]triazol-6-yl)-4-pyridin-4-yl-1H-imidazol-2-yl]-phenoxy}-ethyl)-dimethyl-amine] | < 5.00 | 5.36 |  | BRAF activity in words (V600EBRAF): inactive
CN1CCN(c2ccc(-c3nc(-c4ccc5c(c4)Cc4cn[nH]c4-5)c(-c4ccncc4)[nH]3)cc2)CC1 [1j, 6-{2-[4-(4-Methyl-piperazin-1-yl)-phenyl]-5-pyridin-4-yl-3H-imidazol-4-yl}-2,4-dihydro-indeno[1,2-c]pyrazole] | 6.62 | 6.24 | 870 | BRAF activity in words (V600EBRAF): submicromolar activity; IC50 ppERK activity in words [1]: submicromolar activity; GI50 SRB activity in words (WM266.4 melanoma cells): submicromolar activity
c1cc(-c2[nH]c(C3CCNCC3)nc2-c2ccc3c(c2)Cc2cn[nH]c2-3)ccn1 [1k, 6-(2-Piperidin-4-yl-5-pyridin-4-yl-3H-imidazol-4-yl)-2,4-dihydro-indeno[1,2-c]pyrazole] | 5.88 | 5.31 | 36000 | 
CN(C)CCN1CCN(C(=O)c2cc(-c3ccc4c(c3)Cc3cn[nH]c3-4)c(-c3ccncc3)o2)CC1 [1l, [4-(2,4-Dihydro-indeno[1,2-c]pyrazol-6-yl)-5-pyridin-4-yl-furan-2-yl]-[4-(2-dimethylamino-ethyl)-piperazin-1-yl]-methanone] | 5.44 | 6.13 | 1610 | 
O=C(c1cc(-c2ccc3c(c2)Cc2cn[nH]c2-3)c(-c2ccncc2)o1)N1CCOCC1 [1m, [4-(2,4-Dihydro-indeno[1,2-c]pyrazol-6-yl)-5-pyridin-4-yl-furan-2-yl]-morpholin-4-yl-methanone] | 5.67 | 6.08 | 940 | IC50 ppERK activity in words [1]: submicromolar activity; GI50 SRB activity in words (WM266.4 melanoma cells): submicromolar activity
O=C(c1cc(-c2ccc3c(c2)Cc2cn[nH]c2-3)c(-c2ccncc2)o1)N1CCNCC1 [1n, [4-(2,4-Dihydro-indeno[1,2-c]pyrazol-6-yl)-5-pyridin-4-yl-furan-2-yl]-piperazin-1-yl-methanone] | 5.56 | 6.01 | 1590 | 
CN1CCN(C(=O)c2cc(-c3ccc4c(c3)Cc3cn[nH]c3-4)c(-c3ccncc3)o2)CC1 [1o, [4-(2,4-Dihydro-indeno[1,2-c]pyrazol-6-yl)-5-pyridin-4-yl-furan-2-yl]-(4-methyl-piperazin-1-yl)-methanone] | 5.12 | 6.14 | 1910 | 
CN(C)CCN1CCN(C(=O)c2cc(-c3ccc4c(c3)Cc3cnn(C)c3-4)c(-c3ccncc3)o2)CC1 [1p, [4-(2-Dimethylamino-ethyl)-piperazin-1-yl]-[4-(1-methyl-1,4-dihydro-indeno [1,2-c]pyrazol-6-yl)-5-pyridin-4-yl-furan-2-yl]-methanone] | < 5.00 | < 5.00 |  | 
